Some results are limits rather than exact numbers.

One assay has as its target PLK4 (h) (Homo sapiens, UniProt O00444). Briefly: PLK-4 human kinase assay (SPA). Particulars: read-out: PLK4 pIC50 (converted). The class given is biochemical. In short, it runs like this: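 Radiometric readout: 33P-labelled peptide captured on streptavidin SPA beads after EDTA stop, imaged by Leadseeker. Reaction ran 60 min at room temperature in Hepes pH 8.0 buffer. It contained 1 μM ATP with 2 nM [γ-33P]ATP, 10 μM biotinylated peptide and PLK4 (h) at 19 μg/ml.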

Another assay concerns the target AuroraB (h) (Homo sapiens, UniProt Q96GD4). Briefly: Aurora-B human kinase assay (SPA). Format: biochemical. Particulars: read-out: AuroraB pIC50 (converted). In short, it runs like this:
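Scintillation proximity assay: AuroraB (h) at 0.5 μg/ml with 3 μM biotinylated peptide, 0.5 μM ATP and 2.2 nM [γ-33P]ATP in 60 mM Hepes pH 7.5, 3 mM MgCl2, 3 mM MnCl2, 2 mM DTT. 60 min at room temperature, EDTA stop, streptavidin PVT beads read on Leadseeker.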

For a further assay, the target named is GSK3β (h) (Homo sapiens, UniProt P49841). Briefly: GSK-3β human kinase assay (SPA). The class given is biochemical. Particulars: read-out: GSK3B pIC50 (converted). In short, it runs like this:
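Radiometric SPA read-out: after EDTA stop, biotinylated 33P-labelled peptide bound streptavidin PVT beads and was imaged on Leadseeker. Reaction: 60 min, room temperature, GSK3β (h) at 1 μg/ml, 1 μM substrate peptide, 1 μM ATP with 2 nM [γ-33P]ATP, Tris pH 7.4/MgCl2/DTT buffer.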

Another assay deals with CDK1/CyclinB (h) (Homo sapiens, UniProt P06493). Briefly: CDK1/CyclinB human kinase assay (FRET). Format: biochemical. Particulars: read-out: CDK1 pIC50 (converted). In short, it runs like this: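 Z'-LYTE FRET format: 0.2 μg/ml enzyme with 2 μM Ser/Thr peptide 12 and 10 μM ATP in 50 mM Hepes pH 7.5, 10 mM MgCl2, 1 mM EGTA, 0.01% Brij-35, 60 min at room temperature. Protease development 60 min; coumarin/fluorescein emission ratio (460/538 nm, excitation 390 nm) reports phosphorylation.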
CDK1/CyclinB (h), sequence (P06493 whole entry): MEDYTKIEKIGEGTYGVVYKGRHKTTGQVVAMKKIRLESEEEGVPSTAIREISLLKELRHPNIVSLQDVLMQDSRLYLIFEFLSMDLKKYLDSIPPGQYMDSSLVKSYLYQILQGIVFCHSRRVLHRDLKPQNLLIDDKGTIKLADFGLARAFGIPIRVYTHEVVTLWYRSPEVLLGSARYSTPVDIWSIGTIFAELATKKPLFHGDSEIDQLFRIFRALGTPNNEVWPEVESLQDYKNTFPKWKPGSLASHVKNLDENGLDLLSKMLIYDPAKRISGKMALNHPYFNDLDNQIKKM
CDK1/CyclinB (h), sequence (P14635 whole entry partner): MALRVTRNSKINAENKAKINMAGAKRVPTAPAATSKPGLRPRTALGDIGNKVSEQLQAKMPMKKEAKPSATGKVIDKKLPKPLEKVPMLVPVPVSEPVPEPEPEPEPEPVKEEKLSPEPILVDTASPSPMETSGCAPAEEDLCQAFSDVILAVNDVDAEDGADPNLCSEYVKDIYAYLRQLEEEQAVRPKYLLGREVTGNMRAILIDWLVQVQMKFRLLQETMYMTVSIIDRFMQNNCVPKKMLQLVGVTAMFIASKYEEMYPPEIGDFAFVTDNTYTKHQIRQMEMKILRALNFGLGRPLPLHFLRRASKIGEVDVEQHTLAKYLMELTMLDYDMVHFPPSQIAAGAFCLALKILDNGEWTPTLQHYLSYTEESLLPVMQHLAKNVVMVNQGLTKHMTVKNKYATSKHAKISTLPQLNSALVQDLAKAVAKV

A further assay relates to A2780. Briefly: Cellular proliferation assay (Alamar blue), A2780. Particulars: Homo sapiens, A2780, 72 h, A2780 cells, 72 hours with compound, 10% FCS, read-out: pIC50 A2780 (converted). Format: cell-based. In short, it runs like this:
(§1)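 Proliferation was assessed over 72 h of compound treatment, following 24 h of seeding without compound, under 10% FCS, 37° C. and 5% CO2. Fluorescent resazurin product was measured and compared with control cells.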

In the next assay the test system is HCT-116. Briefly: Cellular proliferation assay (Alamar blue), HCT-116. Particulars: Homo sapiens, HCT-116, 72 h, HCT-116 cells, 72 hours with compound, 10% FCS, read-out: pIC50 HCT-116 (converted). The class given is cell-based. In short, it runs like this: as §1
(In general: The colour change of resazurin is a common sign of viable cells or microbes.)

The subject of the next assay is H1299. Briefly: Cellular proliferation assay (Alamar blue), H1299. The class given is cell-based. Particulars: Homo sapiens, NCI-H1299, 72 h, H1299 cells, 72 hours with compound, 10% FCS, read-out: pIC50 H1299 (converted). In short, it runs like this: as §1
In another assay the test system is MDA/MB231. Briefly: Cellular proliferation assay (Alamar blue), MDA/MB231. The class given is cell-based. Particulars: Homo sapiens, MDA-MB-231, 72 h, MDA/MB231 cells, 72 hours with compound, 10% FCS, read-out: pIC50 MDA/MB231 (converted). In short, it runs like this:
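Viable cell counts come from an Alamar blue assay: resazurin 9 μg/ml plus 90 μM K-ferrocyanide and 90 μM K-ferricyanide, incubated 24 h for MDA-MB-231 or 4 h for H460, with fluorescence read at 544/590 nm. Compound treatment lasted 72 h in 10% FCS after 24 h seeding.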

The next assay has as its system U87MG. Briefly: Cellular proliferation assay (Alamar blue), U87MG. Particulars: Homo sapiens, U-87 MG, 72 h, U87MG cells, 72 hours with compound, 10% FCS, read-out: pIC50 U87MG (converted). The class given is cell-based. In short, it runs like this:
as §1

The next assay deals with PC-3. Briefly: Cellular proliferation assay (Alamar blue), PC-3. Format: cell-based. Particulars: Homo sapiens, PC-3, 72 h, PC-3 cells, 72 hours with compound, 10% FCS, read-out: pIC50 PC-3 (converted). In short, it runs like this: as §1

GSK3β (h), sequence (P49841 whole entry): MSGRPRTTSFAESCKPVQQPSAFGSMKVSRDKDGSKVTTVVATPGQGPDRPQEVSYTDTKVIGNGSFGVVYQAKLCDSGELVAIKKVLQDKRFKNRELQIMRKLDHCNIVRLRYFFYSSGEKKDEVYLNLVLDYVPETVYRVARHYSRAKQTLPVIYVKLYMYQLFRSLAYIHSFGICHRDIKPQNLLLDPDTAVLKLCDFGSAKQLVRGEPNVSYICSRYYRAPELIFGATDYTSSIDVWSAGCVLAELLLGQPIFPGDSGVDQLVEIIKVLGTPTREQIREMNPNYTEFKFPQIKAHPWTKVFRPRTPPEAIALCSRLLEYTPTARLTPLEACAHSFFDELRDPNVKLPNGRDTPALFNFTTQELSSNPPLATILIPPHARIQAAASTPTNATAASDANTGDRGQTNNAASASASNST
PLK4 (h), sequence (O00444 whole entry): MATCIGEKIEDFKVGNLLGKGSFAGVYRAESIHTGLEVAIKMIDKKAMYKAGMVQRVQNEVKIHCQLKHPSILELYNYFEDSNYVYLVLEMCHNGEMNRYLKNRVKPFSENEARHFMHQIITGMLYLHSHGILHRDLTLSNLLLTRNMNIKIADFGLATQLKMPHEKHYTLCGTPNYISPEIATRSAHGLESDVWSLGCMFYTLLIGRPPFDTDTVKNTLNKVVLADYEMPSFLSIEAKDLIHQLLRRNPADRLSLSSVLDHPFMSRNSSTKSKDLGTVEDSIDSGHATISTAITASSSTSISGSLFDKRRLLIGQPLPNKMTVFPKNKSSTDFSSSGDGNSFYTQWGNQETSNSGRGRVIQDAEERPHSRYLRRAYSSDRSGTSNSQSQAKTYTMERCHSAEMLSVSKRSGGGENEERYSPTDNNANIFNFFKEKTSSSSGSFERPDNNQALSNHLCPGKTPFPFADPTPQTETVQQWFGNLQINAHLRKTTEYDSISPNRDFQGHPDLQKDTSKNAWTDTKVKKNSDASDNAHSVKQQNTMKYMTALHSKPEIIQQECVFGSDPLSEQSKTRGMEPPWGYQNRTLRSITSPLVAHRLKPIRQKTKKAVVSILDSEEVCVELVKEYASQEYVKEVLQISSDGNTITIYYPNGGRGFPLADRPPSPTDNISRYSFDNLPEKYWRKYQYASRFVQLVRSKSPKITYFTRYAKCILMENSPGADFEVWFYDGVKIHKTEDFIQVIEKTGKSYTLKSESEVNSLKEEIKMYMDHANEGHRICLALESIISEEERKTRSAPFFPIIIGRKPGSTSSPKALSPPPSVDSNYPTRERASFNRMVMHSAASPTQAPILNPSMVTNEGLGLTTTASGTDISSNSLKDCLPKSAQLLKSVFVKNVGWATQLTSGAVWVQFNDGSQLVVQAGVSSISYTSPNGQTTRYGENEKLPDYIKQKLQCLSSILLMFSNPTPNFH
AuroraB (h), sequence (Q96GD4 whole entry): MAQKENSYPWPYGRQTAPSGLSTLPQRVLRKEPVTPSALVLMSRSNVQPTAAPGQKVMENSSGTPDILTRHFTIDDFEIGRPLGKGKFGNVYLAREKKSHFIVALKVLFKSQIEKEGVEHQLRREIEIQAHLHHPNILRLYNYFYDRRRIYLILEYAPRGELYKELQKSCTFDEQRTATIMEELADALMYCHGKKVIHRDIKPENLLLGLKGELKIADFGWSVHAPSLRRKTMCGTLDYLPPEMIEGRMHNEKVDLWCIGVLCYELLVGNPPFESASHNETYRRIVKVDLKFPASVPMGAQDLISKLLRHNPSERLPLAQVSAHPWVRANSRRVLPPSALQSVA

`CN1CCCCCCC(=O)NCCN(C)c2ncnc3c2/C(=C/Nc2cccc(c2)C1)C(=O)N3` [Compound 54]: the IC50 on PLK4 (h), at AuroraB (h), on GSK3β (h), on CDK1/CyclinB (h), with A2780 and in the assay on HCT-116 was > 10 µM each time. Further, the IC50 in the assay on H1299, in the assay with MDA/MB231, in the assay with U87MG and in the assay with PC-3 was > 10 µM in each case.
For the molecule `CN1CCNC(=O)CCCOc2cc(ccc2Cl)N/C=C2\C(=O)Nc3ncnc1c32` [Compound 55], the IC50 on PLK4 (h), on AuroraB (h), on GSK3β (h), on CDK1/CyclinB (h), in the assay with A2780 and with HCT-116 was > 10 µM each time. Besides, the IC50 with H1299, in the assay on MDA/MB231, with U87MG and in the assay with PC-3 was > 10 µM in each case.
For `COc1cc2cc(c1OC)OCCCC(=O)N(C)CCCNc1ncnc3c1/C(=C/N2)C(=O)N3` [Compound 112], the IC50 on PLK4 (h) is 0.105 µM; at AuroraB (h) it was 0.191 µM; on GSK3β (h), 0.115 µM; at CDK1/CyclinB (h), 0.0479 µM; in the assay with A2780, > 10 µM; with HCT-116 it was 0.55 µM. For the same molecule, the IC50 with H1299 was 0.562 µM; with MDA/MB231, > 10 µM; in the assay with U87MG, 5.25 µM; with PC-3 it was > 10 µM.
Turning to `COc1cc2cc(c1OC)CN(C)CC(=O)N(C)CCCNc1ncnc3c1/C(=C/N2)C(=O)N3` [Compound 125], the IC50 at PLK4 (h) is > 10 µM; on AuroraB (h) it was > 10 µM; on GSK3β (h), 9.77 µM; on CDK1/CyclinB (h) it was > 10 µM; in the assay on A2780, > 10 µM; with HCT-116, > 10 µM. In addition, the IC50 in the assay with H1299, with MDA/MB231, in the assay on U87MG and with PC-3 was > 10 µM throughout.
On to `CN1CCN(c2ccc3cc2CN(C)CCCCCC(=O)N(C)CCNc2ncnc4c2/C(=C/N3)C(=O)N4)CC1` [Compound 126], for which the IC50 was 0.676 µM at PLK4 (h); > 10 µM on AuroraB (h); 3.89 µM at GSK3β (h); > 10 µM on CDK1/CyclinB (h); > 10 µM with A2780; > 10 µM in the assay on HCT-116. The IC50 with H1299 was > 10 µM; in the assay with MDA/MB231, > 10 µM; in the assay on U87MG it was 6.31 µM; in the assay on PC-3, > 10 µM.
Regarding `CN1CCCNc2ncnc3c2/C(=C/Nc2cc(cc(C(F)(F)F)c2)OCCCCC1=O)C(=O)N3` [Compound 130], the IC50 on PLK4 (h) was 4.9 µM; on AuroraB (h) it was 0.309 µM; on GSK3β (h), > 10 µM; on CDK1/CyclinB (h) it was > 10 µM; with A2780, > 10 µM; in the assay with HCT-116, 4.9 µM. The IC50 is 8.91 µM in the assay with H1299, > 10 µM in the assay with MDA/MB231, 6.31 µM with U87MG and 8.13 µM in the assay with PC-3.
For the molecule `COc1cc2cc(c1OC)OCCCC(=O)N(C)CCNc1ncnc3c1/C(=C/N2)C(=O)N3` [Compound 132], the IC50 is 0.417 µM on PLK4 (h); > 10 µM on AuroraB (h); > 10 µM at GSK3β (h); > 10 µM at CDK1/CyclinB (h); > 10 µM in the assay with A2780; 0.912 µM in the assay on HCT-116. The IC50 with H1299, in the assay with MDA/MB231, in the assay with U87MG and in the assay with PC-3 was > 10 µM in each case.
Turning to `CN1CCCCNc2ncnc3c2/C(=C/Nc2cccc(c2)OCC1=O)C(=O)N3` [Compound 143], the IC50 at PLK4 (h) is 3.16 µM; at AuroraB (h) it was 2.34 µM; on GSK3β (h), 0.363 µM; on CDK1/CyclinB (h), > 10 µM; in the assay with A2780, > 10 µM; with HCT-116 it was > 10 µM. In addition, the IC50 in the assay on H1299, in the assay with MDA/MB231, with U87MG and with PC-3 was > 10 µM in each case.
`CN1CCNc2ncnc3c2/C(=C/Nc2cccc(c2)OCC(=O)N(C)CC1)C(=O)N3` [Compound 148]: the IC50 on PLK4 (h) is 1.82 µM; at AuroraB (h), 4.47 µM; at GSK3β (h), 1 µM; at CDK1/CyclinB (h), > 10 µM; with A2780, > 10 µM; in the assay on HCT-116, > 10 µM. The IC50 in the assay on H1299, in the assay on MDA/MB231, in the assay with U87MG and with PC-3 was > 10 µM each time.
As to `CN1CCNc2ncnc3c2/C(=C/Nc2cccc(c2)CN(C)CC(=O)N(C)CC1)C(=O)N3` [Compound 149], the IC50 at PLK4 (h) is 5.01 µM; on AuroraB (h), > 10 µM; at GSK3β (h), 0.302 µM; on CDK1/CyclinB (h), > 10 µM; in the assay with A2780, > 10 µM; with HCT-116, > 10 µM. Also, the IC50 with H1299, in the assay with MDA/MB231, with U87MG and with PC-3 was > 10 µM throughout.
Consider `COc1ccc2cc1OCC(=O)N(C)CCCCNc1ncnc3c1/C(=C/N2)C(=O)N3` [Compound 151], for which the IC50 at PLK4 (h) was 3.47 µM; on AuroraB (h), 2.88 µM; on GSK3β (h), 0.933 µM; on CDK1/CyclinB (h), > 10 µM; in the assay with A2780, > 10 µM; with HCT-116, > 10 µM. The IC50 with H1299, in the assay on MDA/MB231, with U87MG and in the assay on PC-3 was > 10 µM throughout.
Take `COc1cc2cc(c1OC)CN(C)CC(=O)N(C)CCCCNc1ncnc3c1/C(=C/N2)C(=O)N3` [Compound 152]: the IC50 on PLK4 (h) is 5.01 µM; at AuroraB (h), > 10 µM; at GSK3β (h), > 10 µM; at CDK1/CyclinB (h), > 10 µM; in the assay with A2780 it was > 10 µM; with HCT-116 it was > 10 µM. Also, the IC50 with H1299, in the assay with MDA/MB231, in the assay on U87MG and with PC-3 was > 10 µM throughout.
Consider `COc1ccc2cc1CN(C)CC(=O)N(C)CCCCNc1ncnc3c1/C(=C/N2)C(=O)N3` [Compound 153], for which the IC50 on PLK4 (h) is 2.57 µM; on AuroraB (h), > 10 µM; on GSK3β (h) it was 1.62 µM; at CDK1/CyclinB (h), > 10 µM; in the assay on A2780 it was > 10 µM; in the assay on HCT-116, > 10 µM. In addition, the IC50 in the assay on H1299, in the assay with MDA/MB231, in the assay with U87MG and with PC-3 was > 10 µM throughout.
For the molecule `CN1CC(=O)N(C)CCCCNc2ncnc3c2/C(=C/Nc2cccc(c2)C1)C(=O)N3` [Compound 154], the IC50 was 2.82 µM on PLK4 (h); > 10 µM at AuroraB (h); 0.661 µM on GSK3β (h); > 10 µM on CDK1/CyclinB (h); > 10 µM in the assay with A2780; > 10 µM in the assay with HCT-116. Also, the IC50 in the assay on H1299, with MDA/MB231, in the assay on U87MG and with PC-3 was > 10 µM in each case.
For `COc1cc2cc(c1OC)CN(C)CC(=O)N(C)CCN(C)CCNc1ncnc3c1/C(=C/N2)C(=O)N3` [Compound 155], the IC50 is 8.71 µM at PLK4 (h); > 10 µM on AuroraB (h); 6.03 µM on GSK3β (h); > 10 µM on CDK1/CyclinB (h); > 10 µM in the assay with A2780; > 10 µM in the assay with HCT-116. The IC50 in the assay on H1299, in the assay on MDA/MB231, in the assay on U87MG and with PC-3 was > 10 µM throughout.
